{"source": "patent US5219841A", "about": "“Treatment of arrhythmia by administration of Ap4 A” (Fujirebio, Inc., priority 1989, dated 1993)", "key": {"arrhythmia": {"test_system": "arrhythmia", "settings": "cited from earlier work; for antiarrhythmic activity: Somlo 1955, Komor and Garas 1955"}, "[1]": {"test_system": "ouabain-induced cardiac arrhythmia", "assay": "Ouabain-induced arrhythmia model", "type": "in vivo, guinea pig", "settings": "i.v. infusion over 5 min: ATP 10 or 30 mg/kg; Ap4 A 30 mg/kg; disopyramide 5 mg/kg; ouabain 7 μg/kg/min", "description": "With a guinea pig (b.w. 450 g) placed under urethane anesthesia (1.1 g/kg), its femoral vein, jugular vein and carotid artery were cannulated. Ap4 A, ATP or disopyramide was injected into the femoral vein and ouabain into the jugular vein through each cannula, while the carotid artery was utilized for a blood pressure monitoring. Changes associated with the administration of the drug were assessed by monitoring electrocardiogram (ECG), blood pressure, mean blood pressure and heart rate (Nihon Kohden Co.; Models AB620G, AP601G and AT601G). ECG was recorded in accordance with the lead II.\nOuabain-induced cardiac arrhythmia model was prepared by continuous infusion of ouabain at a rate of 7 μg/kg/min via the jugular vein. Each drug was administered by intravenous infusion over a period of 5 minutes at the following dose: ATP, 10 or 30 mg/kg; Ap4 A, 30 mg/kg; and disopyramide, 5 mg/kg. The drug was administered simultaneously with the infusion of ouabain. The antiarrhythmic effect of the drug tested was assessed in terms of the total dose of ouabain given until onset of each of the following parameters: P-P interval prolongation, T-P overlapping, ventricular arrhythmia, ventricular fibrillation and cardiac arrest."}, "[2]": {"test_system": "adrenaline-induced cardiac arrhythmia", "assay": "Adrenaline-induced arrhythmia model", "type": "in vivo, guinea pig", "settings": "for antiarrhythmic effect (reduction of incidence of extrasystole): i.v. infusion over 5 min: ATP 3 or 10 mg/kg, Ap4 A 3 or 10 mg/kg, propranolol 1 mg/kg", "description": "With a guinea pig (b.w. 450 g) placed under urethane anesthesia (1.1 g/kg), its femoral vein, jugular vein and carotid artery were cannulated. Ap4 A, ATP or propranolol was injected into the femoral vein and adrenaline into the jugular vein through each cannula, while the carotid artery was utilized for a blood pressure monitoring. Changes associated with the administration of the drug were monitored in the same manner as above (B), and ECG was recorded in accordance with the lead II.\nAdrenaline-induced cardiac arrhythmia model was prepared by injecting adrenaline (10 μg/kg) into the jugular vein over 5 seconds. Each drug was administered by intravenous infusion over a period of 5 minutes at the following dose: ATP, 3 or 10 mg/kg; Ap4 A, 3 or 10 mg/kg; propranolol, 1 mg/kg. Adrenaline was administered in a single dose 4 minutes after administration of the drug tested. The grading of arrhythmia was assessed in terms of the incidence of extrasystole."}, "guinea pig right atrium": {"test_system": "guinea pig right atrium", "assay": "Effect on heart rate of isolated guinea pig right atrium", "settings": "single dose, 10^-7 to 10^-4 M, KH solution, 31° C.", "description": "A guinea pig (b.w. 450 g) was stunned and was immediately removed its heart to excise the right atrium therefrom. The right atrium was then suspended in a Magnus tube (30 ml) filled with Krebs-Henseleit (KH) solution which was maintained at 31° C. constantly aerating with a mixture of 95% O2 --5% CO2 therein. After the KH solution was changed with the fresh one at 15-minutes intervals and the heart rate of the right atrium was stabilized in 60-90 minutes, Ap4 A or ATP which was prepared at different concentrations was added to the KH solution in a single dose to determine the change of heart rate. Drug concentrations of 10^-4, 10^-5, 10^-6 and 10^-7 M were employed in this experiment. The heart rate was determined with a cardiotachometer (Nihon Kohden Co.; Model AT601G; Japan) and an isometric converter (Nihon Kohden Co.; Model TB-651T), with a 1-g weight load."}, "[3]": {"settings": "Fujii and Nakamura 1977; cited from earlier work"}, "platelet aggregation": {"test_system": "platelet aggregation", "assay": "Platelet aggregation by the drug itself in absence of ADP", "type": "cell-based, rabbit"}}, "note": "Entries after “also recorded” stand apart in the source; their conditions may differ.", "data": [{"smiles": "Nc1ncnc2c1ncn2[C@@H]1O[C@H](CO)[C@@H](O)[C@H]1O", "note": "[adenosine]", "values": [{"measurement": "antiarrhythmic activity", "setting": "arrhythmia", "value": "possess the antiarrhythmic activity"}]}, {"smiles": "CC(C)N(CCC(C(N)=O)(c1ccccc1)c1ccccn1)C(C)C", "note": "(stereo not shown) [disopyramide, reference compound]", "values": [{"measurement": "antiarrhythmic effect: onset of P-P interval prolongation, T-P overlapping, ventricular arrhythmia, ventricular fibrillation and cardiac arrest", "setting": "[1]", "value": "has an antiarrhythmic activity; also recorded: inhibited all these parameters"}]}, {"smiles": "CC(C)NCC(O)COc1cccc2ccccc12", "note": "(stereo not shown) [propranolol, reference compound]", "values": [{"measurement": "antiarrhythmic effect (reduction of incidence of extrasystole)", "setting": "[2]", "value": "reduced the incidence of extrasystole with a dose-dependency; also recorded: dose-dependent reduction of the incidence of extrasystole"}]}, {"smiles": "Nc1ncnc2c1ncn2[C@@H]1O[C@H](COP(=O)(O)OP(=O)(O)OP(=O)(O)O)[C@@H](O)[C@H]1O", "note": "[ATP, Adenosine 5'-triphosphate, reference compound]", "values": [{"measurement": "antiarrhythmic effect: onset of P-P interval prolongation, T-P overlapping, ventricular arrhythmia, ventricular fibrillation and cardiac arrest", "setting": "[1]", "value": "has an antiarrhythmic activity; also recorded: inhibited all these parameters"}, {"measurement": "incidence of extrasystole", "setting": "[2]; 10 mg/kg/5min i.v., adrenaline 10 μg/kg, control value 39%", "value": 5.3, "unit": "%"}, {"measurement": "antiarrhythmic effect (reduction of incidence of extrasystole)", "setting": "[2]", "value": "reduced the incidence of extrasystole with a dose-dependency; also recorded: dose-dependent reduction of the incidence of extrasystole"}, {"measurement": "antiarrhythmic activity", "setting": "arrhythmia", "value": "possess the antiarrhythmic activity"}, {"measurement": "effect on paroxysmal supraventricular tachycardia", "setting": "arrhythmia; clinical, Otsuka et al. 1986", "value": "successful arrest of the paroxysmal supraventricular tachycardia; also recorded: efficacy against the paroxysmal supraventricular tachycardia which is insusceptible to other antiarrhythmic drugs such as verapamil, digoxin and ajimaline"}, {"measurement": "change of heart rate (bradycardic effect)", "setting": "guinea pig right atrium", "value": "reduced the heart rate with a dose-dependency; also recorded: decreased the atrial heart rate with a dose-dependency"}, {"measurement": "vasodilation and other pharmacological effects", "setting": "[3]", "value": "vasodilation; also recorded: enhancement of in vivo metabolic activity; also recorded: increase in muscle contraction; also recorded: rise of efficiency of the neural transmission"}, {"measurement": "platelet aggregation by the drug itself", "setting": "platelet aggregation; 3×10^-5 M or more, absence of ADP", "value": "caused a dose-dependent aggregation of platelets"}, {"measurement": "minimal effective concentration", "setting": "platelet aggregation; Oryctolagus cuniculus, Platelet, absence of ADP, read-out: concentration causing dose-dependent aggregation of platelets", "value": "≥ 30", "unit": "µM"}, {"measurement": "platelet-aggregating activity", "setting": "platelet aggregation; in words, found by the inventors", "value": "has platelet-aggregating activity"}]}]}
